Measurements reported in paper PMC8605023 (Nature Communications, 2021).
Peptide text beside a SMILES is read from it.

How the values were obtained:
Test in all cases: biochemical
Format in all cases: binding
AP2M1 = target: T1, AP2M1 (Homo sapiens, UniProt Q96CW1)
T1 construct: His-GST (cleaved yes); made in house; host or cells: E. coli BL21-Gold(DE3)
T1 sequence (Q96CW1 160-435 limits assumed): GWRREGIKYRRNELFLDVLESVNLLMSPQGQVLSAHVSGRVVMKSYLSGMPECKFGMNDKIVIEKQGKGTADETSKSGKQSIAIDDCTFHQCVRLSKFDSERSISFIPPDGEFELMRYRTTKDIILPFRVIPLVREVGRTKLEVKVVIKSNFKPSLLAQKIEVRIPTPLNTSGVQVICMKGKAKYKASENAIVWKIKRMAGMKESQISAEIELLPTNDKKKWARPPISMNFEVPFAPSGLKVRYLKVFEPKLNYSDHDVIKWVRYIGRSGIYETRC

NTF2 domain of G3BP2 = target: T2, NTF2 domain of G3BP2 (Homo sapiens, UniProt Q9UN86)
T2 construct: made in house; host or cells: E. coli BL21-Gold(DE3)
T2 sequence (Q9UN86 11-133 limits assumed): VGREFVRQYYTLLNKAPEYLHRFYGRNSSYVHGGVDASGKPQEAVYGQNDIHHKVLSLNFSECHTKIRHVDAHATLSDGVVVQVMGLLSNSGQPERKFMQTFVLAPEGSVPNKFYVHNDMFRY

NTF2 domain of G3BP1 = target: T3, NTF2 domain of G3BP1 (Homo sapiens, UniProt Q13283)
T3 construct: made in house; host or cells: E. coli BL21-Gold(DE3)
T3 sequence (Q13283 11-133 limits assumed): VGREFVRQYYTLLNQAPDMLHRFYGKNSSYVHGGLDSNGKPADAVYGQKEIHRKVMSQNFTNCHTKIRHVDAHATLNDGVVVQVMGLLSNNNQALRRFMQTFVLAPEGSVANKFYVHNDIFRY

USP7 = target: T4, USP7 (Homo sapiens, UniProt Q93009)
T4 construct: His-GST (cleaved yes); made in house; host or cells: E. coli BL21-Gold(DE3)
T4 sequence (Q93009 63-205 limits assumed): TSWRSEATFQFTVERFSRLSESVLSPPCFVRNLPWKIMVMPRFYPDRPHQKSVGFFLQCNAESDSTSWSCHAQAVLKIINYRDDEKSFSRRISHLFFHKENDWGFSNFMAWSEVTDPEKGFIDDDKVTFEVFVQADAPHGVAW

MAP1LC3C = target: T5, MAP1LC3C (Homo sapiens, UniProt Q9BXW4)
T5 construct: His-GST (cleaved yes); made in house; host or cells: E. coli BL21-Gold(DE3)
T5 sequence (Q9BXW4 1-126 limits assumed): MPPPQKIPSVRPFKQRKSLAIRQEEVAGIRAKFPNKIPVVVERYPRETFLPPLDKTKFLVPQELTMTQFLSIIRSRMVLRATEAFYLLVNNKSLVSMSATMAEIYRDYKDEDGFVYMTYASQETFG

Row | SMILES | Kd (NTF2 domain of G3BP2) [µM] | IC50 (NTF2 domain of G3BP1) [µM] | Ki (NTF2 domain of G3BP1) [µM] | IC50 (NTF2 domain of G3BP2) [µM] | also measured
1 | CC[C@H](C)[C@H](NC(=O)[C@H](CC(=O)O)NC(=O)[C@H](CO)NC(=O)[C@@H](NC(=O)[C@@H](NC(=O)CNC(C)=O)C(C)C)C(C)C)C(=O)N[C@@H](CC(=O)O)C(=O)N[C@@H](Cc1ccc(O)cc1)C(=O)N[C@H](C(=O)N1CCC[C@H]1C(=O)N[C@@H](CC(C)C)C(=O)N[C@@H](CCCCN)C(=O)N[C@@H](CO)C(=O)N[C@@H](C)C(=O)N[C@H](C(N)=O)[C@@H](C)O)C(C)C | – | – | – | – | Kd (AP2M1): 1.6 ± 0.2 µM
2 | CC[C@H](C)[C@H](NC(=O)[C@H](Cc1ccccc1)NC(=O)[C@H](CC(N)=O)NC(=O)[C@H](Cc1ccc(O)cc1)NC(=O)[C@@H]1CCCN1C(=O)CNC(=O)[C@H](CCC(N)=O)NC(=O)[C@H](CCSC)NC(=O)[C@H](CCC(N)=O)NC(=O)[C@H](C)NC(C)=O)C(=O)N[C@@H](CCC(N)=O)C(=O)N[C@@H](CC(=O)O)C(=O)N[C@@H](CO)C(=O)N[C@@H](CCSC)C(=O)N[C@@H](CC(C)C)C(=O)N[C@@H](CC(=O)O)C(N)=O [CAPRIN1 364-379 Human] (Ac-AQMQGPYNFIQDSMLD-NH2) | 174 | 46 | – | – | –
3 | CC(=O)N[C@@H](CCC(=O)O)C(=O)N[C@@H](CO)C(=O)N[C@@H](CC(C)C)C(=O)N1CCC[C@H]1C(=O)N[C@@H](Cc1ccccc1)C(=O)N[C@@H](CO)C(=O)N[C@@H](Cc1ccccc1)C(=O)NCC(=O)N[C@H](C(=O)N[C@@H](CC(C)C)C(=O)N[C@@H](CO)C(=O)N[C@@H](CO)C(=O)N[C@@H](Cc1c[nH]c2ccccc12)C(=O)N[C@@H](CCC(=O)O)C(=O)N[C@@H](CC(C)C)C(=O)N[C@@H](CCC(=O)O)C(=O)O)[C@@H](C)O [DDIT3 4-19 Human] (Ac-ESLPFSFGTLSSWELE-OH) | 14 | 44 | 14 | – | –
4 | CC(=O)N[C@@H](C)C(=O)N1CCC[C@H]1C(=O)N[C@@H](CCCNC(=N)N)C(=O)N[C@@H](C)C(=O)N[C@H](C(=O)N[C@H](C(=O)N[C@@H](Cc1ccccc1)C(=O)NCC(=O)N[C@@H](CC(=O)O)C(=O)N[C@@H](CC(N)=O)C(=O)N[C@@H](CC(N)=O)C(=O)N[C@@H](CC(=O)O)C(=O)N[C@@H](CC(N)=O)C(=O)N[C@@H](CC(N)=O)C(=O)N[C@H](C(=O)N[C@@H](Cc1ccc(O)cc1)C(N)=O)[C@@H](C)O)[C@@H](C)O)C(C)C [N 6-20 Mers1] (Ac-APRAVTFGDNNDNNTY-NH2) | 26 | – | 51 | – | Ki (NTF2 domain of G3BP2): 26 µM; Kd (NTF2 domain of G3BP1): 51 ± 2 µM
5 | CC[C@H](C)[C@H](NC(=O)[C@H](CCCNC(=N)N)NC(=O)[C@@H]1CCCN1C(=O)[C@H](C)NC(C)=O)C(=O)N[C@H](C(=O)N[C@@H](Cc1ccccc1)C(=O)NCC(=O)NCC(=O)N1CCC[C@H]1C(=O)N[C@@H](CO)C(=O)N[C@@H](CC(=O)O)C(=O)N[C@@H](CO)C(=O)N[C@H](C(=O)NCC(=O)N[C@@H](CO)C(=O)N[C@@H](Cc1ccc(O)cc1)C(N)=O)[C@@H](C)O)[C@@H](C)O [N 12-26 Sars-CoV2] (Ac-APRITFGGPSDSTGSY-NH2) | – | 17 | 4 | 10 | Kd (NTF2 domain of G3BP1): 4 µM
6 | CC[C@H](C)[C@H](NC(=O)[C@H](CCCNC(=N)N)NC(=O)[C@@H]1CCCN1C(=O)[C@H](C)NC(C)=O)C(=O)N[C@H](C(=O)N[C@@H](Cc1ccccc1)C(=O)NCC(=O)NCC(=O)N1CCC[C@H]1C(=O)N[C@H](C(=O)N[C@@H](CC(=O)O)C(=O)N[C@@H](CO)C(=O)N[C@H](C(=O)N[C@@H](CC(=O)O)C(=O)N[C@@H](CC(N)=O)C(=O)N[C@@H](Cc1ccc(O)cc1)C(N)=O)[C@@H](C)O)[C@@H](C)O)[C@@H](C)O [N 13-27 Sars-CoV] (Ac-APRITFGGPTDSTDNY-NH2) | – | 10 | – | – | –
7 | CC(=O)N[C@@H](CCC(N)=O)C(=O)NCC(=O)N[C@@H](CCCCN)C(=O)N1CCC[C@H]1C(=O)N[C@@H](CC(C)C)C(=O)N[C@@H](CCC(=O)O)C(=O)N[C@@H](Cc1ccccc1)C(=O)NCC(=O)N[C@@H](C)C(=O)N[C@H](C(=O)N[C@@H](CO)C(=O)N[C@@H](C)C(=O)N[C@@H](C)C(=O)N[C@@H](CC(C)C)C(=O)N[C@@H](CCC(N)=O)C(=O)N[C@@H](Cc1ccc(O)cc1)C(N)=O)[C@@H](C)O [NSP3 956-971 Sars-CoV2] | 35 ± 13 | – | – | – | Ki (NTF2 domain of G3BP2): 35 µM
8 | CC(=O)N[C@@H](CCC(N)=O)C(=O)NCC(=O)N[C@@H](CC(C)C)C(=O)N1CCC[C@H]1C(=O)N[C@@H](CC(C)C)C(=O)N[C@@H](CCC(=O)O)C(=O)N[C@@H](Cc1ccccc1)C(=O)NCC(=O)N[C@@H](C)C(=O)N[C@@H](CO)C(=O)N[C@@H](C)C(=O)N[C@@H](CCC(=O)O)C(=O)N[C@H](C(=O)N[C@H](C(=O)N[C@@H](CCCNC(=N)N)C(=O)N[C@@H](Cc1ccc(O)cc1)C(N)=O)C(C)C)[C@@H](C)O [NSP3 958-972 Sars-CoV] | 47 ± 2 | – | 119 | – | Ki (NTF2 domain of G3BP2): 47 µM; Kd (NTF2 domain of G3BP1): 119 ± 5 µM
9 | CC(=O)N[C@@H](CC(C)C)C(=O)N[C@H](C(=O)N[C@@H](Cc1ccccc1)C(=O)NCC(=O)N[C@@H](CC(=O)O)C(=O)N[C@@H](Cc1ccccc1)C(=O)N[C@@H](CC(=O)O)C(=O)N[C@@H](CCC(=O)O)C(=O)N[C@@H](Cc1c[nH]cn1)C(=O)N[C@@H](CCC(=O)O)C(=O)N[C@H](C(=O)N[C@@H](CC(=O)O)C(=O)N[C@@H](Cc1ccc(O)cc1)C(N)=O)C(C)C)[C@@H](C)O [NSP3 1785-1796 SFV] | – | 23 | – | 13 | –
10 | CC[C@H](C)[C@H](NC(=O)CNC(=O)[C@H](CO)NC(=O)[C@H](C)NC(=O)[C@H](CC(C)C)NC(=O)[C@H](C)NC(=O)[C@H](CC(=O)O)NC(=O)[C@@H](NC(=O)[C@H](CCC(=O)O)NC(=O)[C@H](Cc1c[nH]cn1)NC(=O)[C@H](CCC(=O)O)NC(=O)[C@H](CC(=O)O)NC(=O)[C@H](Cc1ccccc1)NC(=O)[C@H](CC(=O)O)NC(=O)CNC(=O)[C@H](Cc1ccccc1)NC(=O)[C@@H](NC(=O)[C@H](CC(C)C)NC(C)=O)[C@@H](C)O)C(C)C)C(=O)N[C@H](C(=O)N[C@@H](Cc1ccccc1)C(=O)NCC(=O)N[C@@H](CC(=O)O)C(=O)N[C@@H](Cc1ccccc1)C(=O)N[C@@H](CC(=O)O)C(=O)N[C@@H](CC(=O)O)C(=O)N[C@@H](Cc1ccc(O)cc1)C(N)=O)[C@@H](C)O [NSP3 1785-1809 SFV] | – | – | 0.3 | – | Ki (NTF2 domain of G3BP2): 0.15 µM; Kd (NTF2 domain of G3BP1): 0.3 µM; binds stronger than the SARS-CoV-2 N peptide to both G3BP1 and G3BP2 (fold) (NTF2 domain of G3BP1): approximately 10 fold
11 | CC[C@H](C)[C@H](NC(=O)CNC(=O)[C@H](CO)NC(=O)[C@H](C)NC(=O)[C@H](CC(C)C)NC(=O)[C@H](C)NC(=O)[C@H](CC(=O)O)NC(C)=O)C(=O)N[C@H](C(=O)N[C@@H](Cc1ccccc1)C(=O)NCC(=O)N[C@@H](CC(=O)O)C(=O)N[C@@H](Cc1ccccc1)C(=O)N[C@@H](CC(=O)O)C(=O)N[C@@H](CC(=O)O)C(=O)N[C@@H](Cc1ccc(O)cc1)C(N)=O)[C@@H](C)O [NSP3 1796-1809 SFV] | – | – | – | 11 | –
12 | CC(C)C[C@H](NC(=O)[C@@H](NC(=O)[C@H](CCC(=O)O)NC(=O)[C@H](Cc1ccccc1)NC(=O)[C@H](CO)NC(=O)[C@H](CC(N)=O)NC(=O)[C@H](CO)NC(=O)[C@@H](NC(=O)[C@H](CC(=O)O)NC(=O)[C@@H](N)C(C)C)[C@@H](C)O)C(C)C)C(=O)N[C@@H](C)C(=O)N[C@H](C(=O)N[C@@H](CCC(=O)O)C(=O)N[C@@H](CC(=O)O)C(=O)N[C@H](C(=O)N[C@@H](CCC(N)=O)C(=O)N[C@@H](Cc1ccc(O)cc1)C(=O)O)[C@@H](C)O)C(C)C [NSP3 1996-2011 Sars-CoV] | – | – | – | – | IC50 (USP7): 210 µM; Kd (USP7): 29 ± 2 µM; Ki (USP7): 29 µM; IC50 (MAP1LC3C): 200 µM; Kd (MAP1LC3C): 28 ± 1 µM; Ki (MAP1LC3C): 28 µM
13 | CC[C@H](C)[C@H](NC(=O)[C@@H]1CCCN1C(=O)[C@@H]1CCCN1C(=O)[C@@H](NC(=O)[C@@H]1CCCN1C(C)=O)C(C)C)C(=O)N[C@@H](CCC(=O)O)C(=O)N[C@@H](Cc1ccccc1)C(=O)NCC(=O)N[C@H](C(=O)N[C@@H](CO)C(=O)N1CCC[C@H]1C(=O)N[C@@H](CCCCN)C(=O)N[C@@H](CC(=O)O)C(=O)N[C@@H](CO)C(=O)N[C@@H](CC(=O)O)C(=O)N[C@@H](Cc1ccc(O)cc1)C(N)=O)C(C)C [PRRC2B 1780-1794 Human] (Ac-PVPPIEFGVSPKDSDY-NH2) | 10 | 33 | 10 | 53 | –
14 | CC(=O)N1CCC[C@H]1C(=O)N[C@@H](CO)C(=O)N[C@@H](CCCCN)C(=O)N[C@@H](CC(C)C)C(=O)N1CCC[C@H]1C(=O)N[C@H](C(=O)N[C@@H](Cc1ccccc1)C(=O)NCC(=O)N[C@@H](C)C(=O)N1CCC[C@H]1C(=O)N[C@@H](CCC(=O)O)C(=O)N[C@@H](CCC(N)=O)C(=O)N[C@@H](CC(C)C)C(=O)N[C@H](C(=O)N[C@@H](CC(=O)O)C(=O)N[C@@H](Cc1ccc(O)cc1)C(N)=O)C(C)C)[C@@H](C)O [TRIM25 400-414 Human] (Ac-PSKLPTFGAPEQLVDY-NH2) | 46 | – | 46 | 53 | –
15 | CC(=O)N[C@@H](CC(N)=O)C(=O)N[C@@H](CC(C)C)C(=O)N[C@@H](CCC(N)=O)C(=O)N[C@@H](Cc1ccccc1)C(=O)NCC(=O)N[C@@H](C)C(=O)N[C@@H](CC(C)C)C(=O)N[C@@H](CCC(N)=O)C(=O)N[C@@H](Cc1ccccc1)C(=O)NCC(=O)N[C@@H](CO)C(=O)N[C@@H](CCC(=O)O)C(=O)N1CCC[C@H]1C(=O)N[C@H](C(=O)N[C@@H](Cc1ccc(O)cc1)C(=O)O)C(C)C [UBAP2L 515-528 Human] (Ac-NLQFGALQFGSEPVY-OH) | 34 | – | 34 | – | –
